Where a SMILES comes first, the peptide text is derived from it. [ ]: non-standard residue; d: D form. The star is where a group is joined. hPhe = N[C@@H](CCc1ccccc1)C(=O)O; NH(4-picolyl) = c1cc(CN*)ccn1; Nle = CCCC[C@H](N)C(=O)O

6 molecules from patent US8580918B2, “Peptidic GLP-2 agonists” (Ferring B.V., priority 2009, dated 2013) can be followed below.

One data set is described as follows: Pharmacokinetics in rats after intravenous bolus injection (systemic clearance). It is filed as in vivo. As to conditions: rat, plasma, 0.1 mg FB/kg, adult male Sprague-Dawley rats, i.v. bolus, dose 0.10 mg FB/kg, read-out: CL (ml/kg/min) Average. In short, it runs like this:
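Systemic clearance from noncompartmental analysis as dose per kg over trapezoidal AUC extrapolated to infinity, mean and SD across animals. Plasma (K2EDTA) levels by LC/MS/MS after single IV jugular-vein bolus, 0.1-1.0 mg/kg, in 3-4 cannulated male Sprague-Dawley rats.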
Consider `CCCC[C@H](NC(=O)[C@H](CCC(=O)O)NC(=O)[C@H](CC(=O)O)NC(=O)[C@H](CO)NC(=O)[C@H](Cc1ccccc1)NC(=O)[C@H](CO)NC(=O)CNC(=O)[C@H](CC(=O)O)NC(=O)CNC(=O)[C@@H](N)Cc1cnc[nH]1)C(=O)N[C@H](Cc1ccccc1)C(=O)N[C@H](C(=O)N[C@H](C(=O)N[C@@H](CC(C)C)C(=O)N[C@@H](CC(=O)O)C(=O)N[C@@H](CC(C)C)C(=O)N[C@@H](CC(C)C)C(=O)N[C@@H](C)C(=O)N[C@@H](C)C(=O)N[C@@H](CCCNC(=N)N)C(=O)N[C@@H](CC(=O)O)C(=O)N[C@@H](Cc1ccccc1)C(=O)N[C@H](C(=O)N[C@@H](CC(N)=O)C(=O)N[C@@H](Cc1c[nH]c2ccccc12)C(=O)N[C@@H](CC(C)C)C(=O)N[C@H](C(=O)N[C@@H](CCC(N)=O)C(=O)N[C@H](C(=O)N[C@@H](CCCCN)C(=O)N[C@H](C(=O)N[C@H](C(=O)N[C@@H](CC(=O)O)C(N)=O)[C@@H](C)O)[C@@H](C)CC)[C@@H](C)O)[C@@H](C)CC)[C@@H](C)CC)[C@@H](C)CC)[C@@H](C)O` [Compound 51, [Gly2,Nle10,D-Phe11,Leu16] hGLP-2(1-33)-NH2] (H-HGDGSFSDE[Nle][dF]TILDLLAARDFINWLIQTKITD-NH2), for which the clearance came to 0.2 mL/kg/min.

Staying with this data set, now noted: rat, plasma, 0.2 mg FB/kg, adult male Sprague-Dawley rats, i.v. bolus, dose 0.20 mg FB/kg, read-out: CL (ml/kg/min) Average.
Turning to `CCCC[C@H](NC(=O)[C@H](CCC(=O)O)NC(=O)[C@H](CC(=O)O)NC(=O)[C@H](CO)NC(=O)[C@H](Cc1ccccc1)NC(=O)[C@H](CO)NC(=O)CNC(=O)[C@H](CC(=O)O)NC(=O)CNC(=O)[C@@H](N)Cc1c[nH]cn1)C(=O)N[C@H](Cc1ccccc1)C(=O)N[C@H](C(=O)N[C@H](C(=O)N[C@@H](CC(C)C)C(=O)N[C@@H](CC(=O)O)C(=O)N[C@@H](Cc1ccc(O)cc1)C(=O)N[C@@H](CC(C)C)C(=O)N[C@@H](C)C(=O)N[C@@H](C)C(=O)N[C@@H](CCCNC(=N)N)C(=O)N[C@@H](CC(=O)O)C(=O)N[C@@H](Cc1ccccc1)C(=O)N[C@H](C(=O)N[C@@H](CC(N)=O)C(=O)N[C@@H](Cc1c[nH]c2ccccc12)C(=O)N[C@@H](CC(C)C)C(=O)N[C@H](C(=O)N[C@@H](CCC(N)=O)C(=O)N[C@H](C(=O)N[C@@H](CCCCN)C(N)=O)[C@@H](C)O)[C@@H](C)CC)[C@@H](C)CC)[C@@H](C)CC)[C@@H](C)O` [Compound 49, [Gly2,Nle10,D-Phe11,Tyr16] hGLP-2 (1-30)-NH2] (H-HGDGSFSDE[Nle][dF]TILDYLAARDFINWLIQTK-NH2), the clearance was 0.48 mL/kg/min.
Same read-out and setting: the result for `CCCC[C@H](NC(=O)[C@H](CCC(=O)O)NC(=O)[C@H](CC(=O)O)NC(=O)[C@H](CO)NC(=O)[C@H](Cc1ccccc1)NC(=O)[C@H](CO)NC(=O)CNC(=O)[C@H](CC(=O)O)NC(=O)CNC(=O)[C@@H](N)Cc1cnc[nH]1)C(=O)N[C@H](Cc1ccccc1)C(=O)N[C@H](C(=O)N[C@H](C(=O)N[C@@H](CC(C)C)C(=O)N[C@@H](CC(=O)O)C(=O)N[C@@H](CC(C)C)C(=O)N[C@@H](CC(C)C)C(=O)N[C@@H](C)C(=O)N[C@@H](C)C(=O)N[C@@H](CCCNC(=N)N)C(=O)N[C@@H](CC(=O)O)C(=O)N[C@@H](Cc1ccccc1)C(=O)N[C@H](C(=O)N[C@@H](CC(N)=O)C(=O)N[C@@H](Cc1c[nH]c2ccccc12)C(=O)N[C@@H](CC(C)C)C(=O)N[C@H](C(=O)N[C@@H](CCC(N)=O)C(=O)N[C@H](C(=O)N[C@@H](CCCCN)C(=O)N[C@H](C(=O)N[C@H](C(=O)N[C@@H](CC(=O)O)C(N)=O)[C@@H](C)O)[C@@H](C)CC)[C@@H](C)O)[C@@H](C)CC)[C@@H](C)CC)[C@@H](C)CC)[C@@H](C)O` [Compound 51, [Gly2,Nle10,D-Phe11,Leu16] hGLP-2(1-33)-NH2] (H-HGDGSFSDE[Nle][dF]TILDLLAARDFINWLIQTKITD-NH2) reads 0.27 mL/kg/min; that for `CCCC[C@H](NC(=O)[C@H](CCC(=O)O)NC(=O)[C@H](CC(=O)O)NC(=O)[C@H](CO)NC(=O)[C@H](Cc1ccccc1)NC(=O)[C@H](CO)NC(=O)CNC(=O)[C@H](CC(=O)O)NC(=O)CNC(=O)[C@@H](N)Cc1c[nH]cn1)C(=O)N[C@@H](CC(N)=O)C(=O)N[C@H](C(=O)N[C@H](C(=O)N[C@@H](CC(C)C)C(=O)N[C@@H](CC(=O)O)C(=O)N[C@@H](CCc1ccccc1)C(=O)N[C@@H](CC(C)C)C(=O)N[C@@H](C)C(=O)N[C@@H](C)C(=O)N[C@@H](CCCNC(=N)N)C(=O)N[C@@H](CC(=O)O)C(=O)N[C@@H](Cc1ccccc1)C(=O)N[C@H](C(=O)N[C@@H](CC(N)=O)C(=O)N[C@@H](Cc1c[nH]c2ccccc12)C(=O)N[C@@H](CC(C)C)C(=O)N[C@H](C(=O)N[C@@H](CCC(N)=O)C(=O)N[C@H](C(=O)N[C@@H](CCCCN)C(N)=O)[C@@H](C)O)[C@@H](C)CC)[C@@H](C)CC)[C@@H](C)CC)[C@@H](C)O` [Compound 28, [Gly2,Nle10,hPhe16] hGLP-2 (1-30)-NH2] (H-HGDGSFSDE[Nle]NTILD[hPhe]LAARDFINWLIQTK-NH2), 0.44 mL/kg/min.
Regarding `CCCC[C@H](NC(=O)[C@H](CCC(=O)O)NC(=O)[C@H](CC(=O)O)NC(=O)[C@H](CO)NC(=O)[C@H](Cc1ccccc1)NC(=O)[C@H](CO)NC(=O)CNC(=O)[C@H](CC(=O)O)NC(=O)CNC(=O)[C@@H](N)Cc1c[nH]cn1)C(=O)N[C@H](Cc1ccccc1)C(=O)N[C@H](C(=O)N[C@H](C(=O)N[C@@H](CC(C)C)C(=O)N[C@@H](CC(=O)O)C(=O)N[C@@H](CC(C)C)C(=O)N[C@@H](CC(C)C)C(=O)N[C@@H](C)C(=O)N[C@@H](C)C(=O)N[C@@H](CCCNC(=N)N)C(=O)N[C@@H](CC(=O)O)C(=O)N[C@@H](Cc1ccccc1)C(=O)N[C@H](C(=O)N[C@@H](CC(N)=O)C(=O)N[C@@H](Cc1c[nH]c2ccccc12)C(=O)N[C@@H](CC(C)C)C(=O)N[C@H](C(=O)N[C@@H](CCC(N)=O)C(=O)N[C@H](C(=O)N[C@@H](CCCCN)C(=O)N[C@H](C(=O)N[C@H](C(=O)N[C@@H](CC(=O)O)C(=O)NCc1ccncc1)[C@@H](C)O)[C@@H](C)CC)[C@@H](C)O)[C@@H](C)CC)[C@@H](C)CC)[C@@H](C)CC)[C@@H](C)O` [Compound 54, [Gly2,Nle10,D-Phe11,Leu16] hGLP-2(1-33)-NH-4-Pic] (H-HGDGSFSDE[Nle][dF]TILDLLAARDFINWLIQTKITD-{NH(4-picolyl)}), the clearance was determined as 0.27 mL/kg/min.
Still for that read-out and setting: to `CCCC[C@H](NC(=O)[C@H](CCC(=O)O)NC(=O)[C@H](CC(=O)O)NC(=O)[C@H](CO)NC(=O)[C@H](Cc1ccccc1)NC(=O)[C@H](CO)NC(=O)CNC(=O)[C@H](CC(=O)O)NC(=O)CNC(=O)[C@@H](N)Cc1c[nH]cn1)C(=O)N[C@H](Cc1c[nH]c2ccccc12)C(=O)N[C@H](C(=O)N[C@H](C(=O)N[C@@H](CC(C)C)C(=O)N[C@@H](CC(=O)O)C(=O)N[C@@H](CC(N)=O)C(=O)N[C@@H](CC(C)C)C(=O)N[C@@H](C)C(=O)N[C@@H](C)C(=O)N[C@@H](CCCNC(=N)N)C(=O)N[C@@H](CC(=O)O)C(=O)N[C@@H](Cc1ccccc1)C(=O)N[C@H](C(=O)N[C@@H](CC(N)=O)C(=O)N[C@@H](Cc1c[nH]c2ccccc12)C(=O)N[C@@H](CC(C)C)C(=O)N[C@H](C(=O)N[C@@H](CCC(N)=O)C(=O)N[C@H](C(=O)N[C@@H](CCCCN)C(N)=O)[C@@H](C)O)[C@@H](C)CC)[C@@H](C)CC)[C@@H](C)CC)[C@@H](C)O` [Compound 30, [Gly2,Nle10,D-Trp11] hGLP-2 (1-30)-NH2] (H-HGDGSFSDE[Nle][dW]TILDNLAARDFINWLIQTK-NH2) belongs 1.2 mL/kg/min.
Consider `CCCC[C@H](NC(=O)[C@H](CCC(=O)O)NC(=O)[C@H](CC(=O)O)NC(=O)[C@H](CO)NC(=O)[C@H](Cc1ccccc1)NC(=O)[C@H](CO)NC(=O)CNC(=O)[C@H](CC(=O)O)NC(=O)CNC(=O)[C@@H](N)Cc1c[nH]cn1)C(=O)N[C@H](Cc1ccccc1)C(=O)N[C@H](C(=O)N[C@H](C(=O)N[C@@H](CC(C)C)C(=O)N[C@@H](CC(=O)O)C(=O)N[C@@H](Cc1ccccc1)C(=O)N[C@@H](CC(C)C)C(=O)N[C@@H](C)C(=O)N[C@@H](C)C(=O)N[C@@H](CCCNC(=N)N)C(=O)N[C@@H](CC(=O)O)C(=O)N[C@@H](Cc1ccccc1)C(=O)N[C@H](C(=O)N[C@@H](CC(N)=O)C(=O)N[C@@H](Cc1c[nH]c2ccccc12)C(=O)N[C@@H](CC(C)C)C(=O)N[C@H](C(=O)N[C@@H](CCC(N)=O)C(=O)N[C@H](C(=O)N[C@@H](CCCCN)C(=O)N[C@H](C(=O)N[C@H](C(=O)N[C@@H](CC(=O)O)C(N)=O)[C@@H](C)O)[C@@H](C)CC)[C@@H](C)O)[C@@H](C)CC)[C@@H](C)CC)[C@@H](C)CC)[C@@H](C)O` [Compound 63, [Gly2,Nle10,D-Phe11,Phe16] hGLP-2(1-33)-NH2] (H-HGDGSFSDE[Nle][dF]TILDFLAARDFINWLIQTKITD-NH2), for which the clearance is 0.24 mL/kg/min.
